Patent publication US8354398B2, “Substituted isoxazole compounds” (Bristol-Myers Squibb Company, priority 2009, dated 2013)
Where a name gives a salt, the structure may show the parent alone.

What was measured:
[1] = target: T1, S1P3 (Homo sapiens, UniProt Q99500); experiment: Method A: Receptor [35S] GTPγS Binding Assay, membranes from EDG3-Ga15-bla HEK293T cells; assay type: biochemical; parameters: expressed in transfected cells; host or cells: EDG3-Ga15-bla HEK293T cells; conditions: EDG3-Ga15-bla HEK293T cell membranes
Experimental: (§1) Compounds were loaded in a 384 Falcon v-bottom plate (0.5 μl/well in a 3-fold dilution). Membranes prepared from S1P1/CHO cells or EDG3-Ga15-bla HEK293T cells were added to the compound plate (40 μl/well, final protein […]) with MULTIDROP®. [^35S]GTP (1250 Ci/mmol, Perkin Elmer) was diluted in assay buffer: 20 mM HEPES, pH7.5, 10 mM MgCl2, 150 mM NaCl, 1 mM EGTA, 1 mM DTT, 10 μM GDP, 0.1% fatty acid free BSA, and 10 mg/ml Saponin to 0.4 nM. 40 μl of the [^35S] GTP solution was added to the compound plate with a final concentration of 0.2 nM. The reaction was kept at room temperature for 45 min. At the end of incubation, all the mixtures in the compound plate were transferred to a 384 well FB filter plates via GPCR robot system. The filter plate was washed with water 4 times by using the modified manifold Embla plate washer and dried at 60° C. for 45 min. 30 μl of MicroScint 20 scintillation fluid was added to each well for counting at Packard TOPCOUNT®. EC50 is defined as the agonist concentration that corresponds to 50% of the Ymax (maximal response) obtained for each individual compound tested.
(§2) Compounds of the present invention and Comparative Compound A were tested in the Receptor [^35S] GTPγS Binding Assays (Method A) and Receptor [35S] In some instances, the value is an average of multiple experiments where N is the number of experiments conducted that provided satisfactory dose response curves. When more than one batch of an example was tested, the value presented is from a batch which allowed a comparison of GTPγS S1P1 and GTPγS S1P3 in which the most number of experiments were performed. Preferably, the same batch was examined in Method A and Method B. Data was not averaged across different batches of an example compound.
Target sequence in this assay (Q99500 whole entry): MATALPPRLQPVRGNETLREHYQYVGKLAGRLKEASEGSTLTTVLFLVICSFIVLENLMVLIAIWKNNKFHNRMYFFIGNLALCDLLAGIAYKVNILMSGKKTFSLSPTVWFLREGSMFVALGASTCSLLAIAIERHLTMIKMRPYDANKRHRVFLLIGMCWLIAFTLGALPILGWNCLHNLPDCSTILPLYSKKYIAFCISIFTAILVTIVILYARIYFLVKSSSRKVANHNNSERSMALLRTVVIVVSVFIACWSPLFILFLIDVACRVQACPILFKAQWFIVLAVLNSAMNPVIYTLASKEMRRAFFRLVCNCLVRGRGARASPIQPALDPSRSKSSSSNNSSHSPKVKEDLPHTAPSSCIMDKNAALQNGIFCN

[2] = target: T2, S1P1 (Homo sapiens, UniProt P21453); experiment: S1P1 Binding Assay (33P-S1P ligand competition, membranes from CHO cells); parameters: expressed in transfected cells; host or cells: CHO cells; conditions: membranes of CHO cells expressing human S1P1; 0.03 nM 33P-S1P; 60 min room temperature
Experimental: Membranes were prepared from CHO cells expressing human S1P1. Cells were dissociated in buffer containing 20 mM HEPES, pH 7.5, 50 mM NaCl, 2 mM EDTA and Protease Inhibitor cocktail (Roche), and disrupted on ice using the Polytron homogenizer. The homogenate was centrifuged at 20,000 rpm (48,000 g) and the supernatant was discarded. The membrane pellets were resuspended in buffer containing 50 mM HEPES, pH 7.5, 100 mM NaCl, 1 mM MgCl2, 2 mM EDTA and stored in aliquots at −80° C. after protein concentration determination.
Membranes (2 μg/well) and 0.03 nM final concentration of ^33P-S1P ligand (1 mCi/ml, American Radiolabeled Chemicals) were added to the compound plates. Binding was performed for 60 min at room temperature, terminated by collecting the membranes onto GF/B filter plates, and radioactivity was measured by TOPCOUNT®. The competition data of the test compounds over a range of concentrations was plotted as percentage inhibition of radioligand specific binding. The IC50 is defined as the concentration of competing ligand needed to reduce specific binding by 50%.
Compounds of the present invention and Comparative Compound A were tested in the S1P1 binding assay described hereinabove and the results rounded to two digits, shown in Table A were obtained. In some instances, the value is an average of multiple experiments where N is the number of experiments conducted that provided satisfactory dose response curves. When more than one batch of an example was tested, the value presented is from the batch which allowed a comparison of GTPγS S1P1 and GTPγS S1P3 in Method A (Data shown in Table B). Data was not averaged across different batches of an example compound.

[3] = target: T2, S1P1; experiment: Method A: Receptor [35S] GTPγS Binding Assay, membranes from S1P1/CHO cells; assay type: biochemical; parameters: expressed in transfected cells; host or cells: S1P1/CHO cells; conditions: for EC50: Method A, S1P1/CHO cell membranes; for GTPγS S1P3/S1P1 (Method A): ratio of GTPγS S1P3 EC50 to GTPγS S1P1 EC50, Method A
Experimental: as §1, §2

[4] = target: T1, S1P3; experiment: Method B: Receptor [35S] GTPγS SPA Binding Assay, membranes from S1P3 transfected CHO cells; assay type: biochemical; parameters: expressed in transfected cells; host or cells: CHO cells; conditions: S1P3 transfected CHO cell membranes, NC = a satisfactory dose response curve was not obtained
Experimental: (§3) Membranes prepared from S1P1 or S1P3 transfected CHO cells (2 μg protein) were incubated in 96-well white plates (CORNING® 3693) with test compounds diluted in DMSO, in 50 μl of reaction mixture containing 7.5 μl WGA-PVT beads (20 mg/ml), and 5 μM GDP, 20 mM HEPES pH 7.4, 100 mM NaCl, 1 mM EDTA, 5 mM MgCl2, 10 μg/ml saponin, 0.1% BSA, and 1 μM leupeptin. The assay was initiated with the addition of 25 μl of 0.2 nM [^35S]-GTPγS (1250 Ci/mmol; NEN) in assay buffer. After 90 min incubation at room temperature, spin the plate at 1000 rpm for 5 min. The bound radionuclides were measured at TOPCOUNT®, expressed as % response relative to S1P (1 μM) activation. Data was analyzed using the four parameter logistic equation in Excel. The four parameters in the equation, Y=A+((B−A)/(1+((EC50/X)^D))), are described as following: A is the Y value (agonist activity) at the bottom plateau; B is the Y value at the top plateau; EC50 is the X value (agonist concentration) when the response is halfway between bottom and top; D is Hill coefficient. Curves were not generated for compounds having Ymax values were below 50%.
as §2
Target sequence in this assay (Q99500 whole entry, species assumed): as the sequence (Q99500 whole entry) above

[5] = target: T2, S1P1; experiment: Method B: Receptor [35S] GTPγS SPA Binding Assay, membranes from S1P1 transfected CHO cells; assay type: biochemical; parameters: expressed in transfected cells; host or cells: S1P1/CHO cells; conditions: for EC50: Method B SPA, S1P1 transfected CHO cell membranes, NC = a satisfactory dose response curve was not obtained; for GTPγS S1P3/S1P1 (Method B): ratio of GTPγS S1P3 EC50 to GTPγS S1P1 EC50, Method B
Experimental: as §3, §2

T2 sequence (P21453 whole entry): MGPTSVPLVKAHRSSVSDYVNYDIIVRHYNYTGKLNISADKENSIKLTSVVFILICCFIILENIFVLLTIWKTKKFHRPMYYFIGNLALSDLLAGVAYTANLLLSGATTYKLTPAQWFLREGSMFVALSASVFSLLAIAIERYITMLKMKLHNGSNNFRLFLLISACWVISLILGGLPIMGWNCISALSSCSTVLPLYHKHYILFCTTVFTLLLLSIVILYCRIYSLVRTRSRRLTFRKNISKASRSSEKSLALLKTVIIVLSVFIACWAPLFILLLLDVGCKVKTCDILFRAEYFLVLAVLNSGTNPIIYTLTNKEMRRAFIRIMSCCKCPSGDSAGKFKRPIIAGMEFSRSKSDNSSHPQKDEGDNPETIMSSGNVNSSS

SMILES	EC50 [1]	IC50 [2]	EC50 [3]	GTPγS S1P3/S1P1 (Method A) [3]	EC50 [4]	EC50 [5]	GTPγS S1P3/S1P1 (Method B) [5]
O=C(O)C1CN(Cc2ccc(-c3noc(-c4cc(-c5ccccc5)c(C(F)(F)F)s4)n3)cc2)C1 [Comp. A, 1-(4-(5-(4-Phenyl-5-(trifluoromethyl)thiophen-2-yl)-1,2,4-oxadiazol-3-yl)benzyl)azetidine-3-carboxylic acid, reference compound]	97 nM	2.5 nM	84 nM	1.2	20 nM	0.25 nM	78
CC(C)(C)c1c(-c2nc(-c3ccc(CN4CC(C(=O)O)C4)cc3)no2)noc1-c1ccccc1 [Example 7, 1-(4-(5-(4-tert-Butyl-5-phenylisoxazol-3-yl)-1,2,4-oxadiazol-3-yl)benzyl)-azetidine-3-carboxylic acid, 2-2-2-trifluoroacetic acid salt]	3700 nM	0.58 nM	6.6 nM	560	8100 nM	1.5 nM	5,400
CC(F)(F)c1c(-c2nc(-c3ccc(CN4CC(C(=O)O)C4)cc3)no2)noc1-c1ccccc1 [Example 9, 1-(4-(5-(4-(1,1-Difluoroethyl)-5-phenylisoxazol-3-yl)-1,2,4-oxadiazol-3-yl)benzyl)azetidine-3-carboxylic acid, 2,2,2-trifluoroacetic acid salt]	2500 nM	0.14 nM	3.1 nM	810	910 nM	0.14 nM	6,500
CCC(F)(F)c1c(-c2nc(-c3ccc(CN4CC(C(=O)O)C4)cc3)no2)noc1-c1ccccc1 [Example 10, 1-(4-(5-(4-(1,1-Difluoropropyl)-5-phenylisoxazol-3-yl)-1,2,4-oxadiazol-3-yl)benzyl)azetidine-3-carboxylic acid, trifluoroacetic acid salt]	190 nM	0.055 nM	0.84 nM	230		0.055 nM	
CCCc1c(-c2ccccc2)noc1-c1nc(-c2ccc(CN3CC(C(=O)O)C3)cc2)no1 [Example 11, 1-(4-(5-(3-Phenyl-4-propylisoxazol-5-yl)-1,2,4-oxadiazol-3-yl)benzyl)azetidine-3-carboxylic acid, 2,2,2-trifluoroacetic acid salt]		0.13 nM	0.47 nM		50 nM	0.017 nM	2,900
O=C(O)C1CN(Cc2ccc(-c3noc(-c4onc(-c5ccccc5)c4C(F)F)n3)cc2)C1 [Example 12, 1-(4-(5-(4-(Difluoromethyl)-3-phenylisoxazol-5-yl)-1,2,4-oxadiazol-3-yl)benzyl)azetidine-3-carboxylic acid, 2,2,2-trifluoroacetic acid salt]	3600 nM	0.078 nM			1600 nM	0.15 nM	11,000
CNC(=O)c1c(-c2ccccc2)noc1-c1nc(-c2ccc(CN3CC(C(=O)O)C3)cc2)no1 [Example 14, 1-(4-(5-(4-(Methylcarbamoyl)-3-phenylisoxazol-5-yl)-1,2,4-oxadiazol-3-yl)benzyl)azetidine-3-carboxylic acid, 2,2,2-trifluoroacetic acid salt]	5200 nM	0.7 nM	150 nM	35		1.2 nM	
O=C(O)C1CN(Cc2ccc(-c3noc(-c4noc(-c5ccccc5)c4-c4ccccc4)n3)cc2)C1 [Example 17, 1-(4-(5-(4,5-diphenylisoxazol-3-yl)-1,2,4-oxadiazol-3-yl)benzyl)azetidine-3-carboxylic acid, 2,2,2-trifluoroacetic acid salt]	20 nM	0.063 nM	0.73 nM	27	13.5 nM	0.12 nM	112
CCCc1c(-c2nc(-c3ccc(CN4CC(C(=O)O)C4)cc3)no2)noc1CC(C)C [Example 18, 1-(4-(5-(5-Isobutyl-4-propylisoxazol-3-yl)-1,2,4-oxadiazol-3-yl)benzyl)azetidine-3-carboxylic acid, TFA]		0.14 nM	1 nM		21 nM	0.015 nM	1,400
CCCc1onc(-c2nc(-c3ccc(CN4CC(C(=O)O)C4)cc3)no2)c1CC(C)C [Example 19, 1-(4-(5-(4-Isobutyl-5-propylisoxazol-3-yl)-1,2,4-oxadiazol-3-yl)benzyl)azetidine-3-carboxylic acid, TFA]	810 nM	0.3 nM	3 nM	270		0.72 nM	
